Reference: US9340577B2, “HLA binding motifs and peptides and their uses” (priority 1992, dated 2016)
pIC50: −log10 of the molar value. “Also recorded” adds a separate entry of the source. Like-named read-outs stand apart in the source and are kept apart here. No end group written: not given here.

How the values were obtained:
B*5301 = B*5301 (Homo sapiens, UniProt P01889, A329T/A93T/A95T/C349S/D201E/D98Y/E176V/E187L/E204Q/E69T/G107R/I218V/K202T/L105A/L119I/N104I/Q94N/R106L/R155S/R180L/S101N/S121R/S35A/S48A/T118I/V127L/V306I/V36M/Y140S/Y91F); assay: biochemical; settings: for IC50: B*5301 (nM)
B*5401 = B*5401 (Homo sapiens, UniProt P01889, A329T/C349S/D138N/D201E/E176V/E187T/E204Q/E69G/I76V/K202T/L119W/R155S/R180L/S121T/S35A/S48A/V127L/V306I/V36M/Y140L); assay: biochemical
B*0701 = B*0701 (Homo sapiens, UniProt P01889); assay: biochemical; settings: for IC50: B*0701 (nM), Binding of peptides to B7-like supermotif alleles, Table 36
A*3002 = A*3002 (Homo sapiens, UniProt P04439, D101N/D140H/D185E/E176R/F33S/G80R/H175R/K168Q/Q94H/R138E/R41S/V100E); assay: biochemical; type: binding
HLA-A1 (A*0101) = HLA-A1 (A*0101) (Homo sapiens, UniProt P04439, A114D/A174V/A182V/D101N/D185E/E176A/E190D/L180R/Q94H/R68K/S129P/T187R/V100A/V91M/W191G); assay: biochemical; type: binding
A*2902 = A*2902 (Homo sapiens, UniProt P04439, A270S/D101N/D185E/E176V/E277Q/E87Q/F33T/G231S/H175R/I121M/I218V/I322F/K168Q/L300P/L318F/M331R/P208A/P217A/Q86L/T323A/T345S/V100A/V358M); assay: biochemical; type: binding
A*2601 = A*2601 (Homo sapiens, UniProt P04439, A114D/A173T/A270S/D101N/D185E/E277Q/E87N/F33Y/G231S/I121R/I218V/K168Q/L180W/L300P/L318F/P208A/P217A/Q86R/Q94H/R138Q/S129P/T187R/T323A/T345S/V100A/V358M); assay: biochemical; type: binding
HLA-A*0201 (HLA-A2.1) = HLA-A*0201 (HLA-A2.1) (Homo sapiens, UniProt P04439, D140Y/D185E/D98H/E176V/E277Q/G131W/G231S/I119V/I121R/I166T/I218V/L300P/L318F/N151K/N90K/P208A/P217A/Q86G/Q94H/R138H/R169H/T345S); assay: biochemical; type: binding
B*0702 (B*0701) = B*0702 (B*0701) (Homo sapiens, UniProt P01889); assay: biochemical; type: binding; settings: Table 25; given as whole numbers, no unit
HLA-A24 = type: binding, human
A2.1 HLA molecules = A2.1 HLA molecules (Homo sapiens, UniProt P04439, D140Y/D185E/D98H/E176V/E277Q/G131W/G231S/I119V/I121R/I166T/I218V/L300P/L318F/N151K/N90K/P208A/P217A/Q86G/Q94H/R138H/R169H/T345S); type: binding; set-up: A*0201 / A2.1 Binding / A2 Bind. / A2 / A2.1 (binding capacity): scale not given here
[1] = system: peptide-coated Jurkat A2/Kb target cells; set-up: species or system mice; settings: mouse, in vivo

| Compound | pIC50 (A*3002) | pIC50 (HLA-A1 (A*0101)) | pIC50 (A*2902) | pIC50 (A*2601) | further results |
| --- | --- | --- | --- | --- | --- |
| CC[C@H](C)[C@H](NC(=O)[C@@H](NC(=O)[C@H](Cc1ccccc1)NC(=O)[C@H](CC(N)=O)NC(=O)[C@@H](NC(=O)[C@@H](NC(=O)[C@H](CS)NC(=O)[C@@H]1CCCN1C(=O)[C@@H](N)Cc1ccc(O)cc1)[C@@H](C)O)C(C)C)[C@@H](C)O)C(=O)O [15.047] | – | – | – | – | IC50 (B*5301): 102 nM; pIC50 (B*5401): 7.05 |
| CC[C@H](C)[C@H](NC(=O)[C@H](Cc1ccc(O)cc1)NC(=O)[C@H](CC(C)C)NC(=O)[C@H](Cc1c[nH]cn1)NC(=O)CNC(=O)[C@@H](NC(=O)[C@@H]1CCCN1C(=O)[C@@H](N)CC(=O)O)[C@@H](C)CC)C(=O)N[C@@H](Cc1ccccc1)C(=O)O [15.138] | – | – | – | – | IC50 (B*5301): 2550 nM |
| CC[C@H](C)[C@H](NC(=O)[C@@H]1CCCN1C(=O)[C@@H](N)CCCCN)C(=O)N[C@H](C(=O)N[C@@H](CCC(N)=O)C(=O)N[C@@H](Cc1ccc(O)cc1)C(=O)N[C@@H](CC(=O)O)C(=O)N[C@@H](CC(N)=O)C(=O)N[C@@H](Cc1ccccc1)C(=O)O)C(C)C [15.185] | – | – | – | – | IC50 (B*5301): 2040 nM |
| CSCC[C@H](NC(=O)[C@H](CC(C)C)NC(=O)[C@H](C)NC(=O)[C@@H]1CCCN1C(=O)[C@@H](N)Cc1ccc(O)cc1)C(=O)N1CCC[C@H]1C(=O)N[C@@H](CC(C)C)C(=O)N[C@@H](Cc1ccc(O)cc1)C(=O)N[C@@H](C)C(=O)O [16.008] | – | – | – | – | IC50 (B*5301): 2580 nM; pIC50 (B*5401): 9.10; IC50 (B*0701): 524 nM |
| CC[C@H](C)[C@H](NC(=O)[C@H](Cc1ccc(O)cc1)NC(=O)[C@H](CC(C)C)NC(=O)[C@H](Cc1c[nH]cn1)NC(=O)CNC(=O)[C@@H](NC(=O)[C@@H]1CCCN1C(=O)[C@@H](N)CC(=O)O)[C@@H](C)CC)C(=O)N[C@@H](Cc1ccccc1)C(=O)N[C@@H](C)C(=O)O [16.201] | – | – | – | – | IC50 (B*5301): 20700 nM; pIC50 (B*5401): 6.44 |
| CC(C)C[C@H](NC(=O)[C@H](CC(=O)O)NC(=O)[C@H](CCC(N)=O)NC(=O)[C@@H](N)[C@@H](C)O)C(=O)N[C@H](C(=O)N[C@@H](CCC(N)=O)C(=O)N[C@@H](CCC(=O)O)C(=O)N[C@@H](CCCCN)C(=O)N[C@@H](Cc1ccc(O)cc1)C(=O)O)C(C)C [Peptide 83.0099] | 5.68 | 7.04 | < 4.70 | – | – |
| CC[C@H](C)[C@H](NC(=O)[C@@H]1CCCN1C(=O)[C@H](CC(=O)O)NC(=O)[C@@H](NC(=O)[C@H](CCC(=O)O)NC(=O)[C@@H](N)CCSC)C(C)C)C(=O)NCC(=O)N[C@@H](Cc1c[nH]cn1)C(=O)N[C@@H](CC(C)C)C(=O)N[C@@H](Cc1ccc(O)cc1)C(=O)O [Peptide 1461.06] | 7.46 | 6.43 | 6.51 | 7.82 | – |
| CC[C@H](C)[C@H](NC(=O)[C@@H](NC(=O)[C@@H](NC(=O)[C@@H](N)CS)[C@@H](C)O)[C@@H](C)O)C(=O)N[C@@H](Cc1c[nH]cn1)C(=O)N[C@@H](Cc1ccc(O)cc1)C(=O)N[C@@H](CC(N)=O)C(=O)N[C@@H](Cc1ccc(O)cc1)C(=O)O [Peptide 9012.0113] | – | 5.46 | 5.51 | 6.05 | – |
| ATDLGLSY [Peptide 9012.0112] | – | 8.02 | 5.66 | 5.55 | – |
| ATSPAFDNLYY [Peptide 9012.0188] | 9.05 | 8.31 | 8.03 | 7.39 | – |
| CILESCFRAVI | – | – | – | – | binding to HLA-A2.1 (column 3; no allele head shown for these rows) (HLA-A*0201 (HLA-A2.1)): 0.0017; B*0701 binding (B*0702 (B*0701)): 0; binding to HLA-A24 (column 6; no allele head shown for these rows) (HLA-A24): 0.0008 |
| CTDIHYNY [Peptide 9012.0114] | – | 7.17 | 5.59 | 5.66 | – |
| DMDDLVDAEEY [Peptide 9012.0184] | 4.74 | 6.37 | < 4.70 | 5.25 | – |
| E6.29/1088.10 (TIHDIILECV) | – | – | – | – | A2.1 Binding (A2.1 HLA molecules): 0.021; Immunogenicity Experiment 1 [1]: 22.13 (3.71) Lytic Units; Immunogenicity Experiment 2 [1]: 0.4 (3.52) Lytic Units |
| EPIVGAETF [15.091] | – | – | – | – | IC50 (B*5301): 4770 nM |
| ETVPISHLY [Peptide 9012.0132] | 8.66 | 6.63 | 6.06 | 9.46 | – |
| FTQENYLEY [Peptide 9012.0137] | 7.00 | 7.89 | 7.64 | 8.10 | – |
| FTTCLGLSY [Peptide 9012.0136] | 5.89 | 7.82 | 8.66 | 8.89 | – |
| GTDCTTIHYNY [Peptide 9012.0200] | 7.12 | 7.54 | 6.02 | 5.31 | – |
| GTDPACYEF [Peptide 9012.0135] | 5.01 | 6.33 | 5.71 | – | – |
| GTDVRAMAIY [Peptide 9012.0156] | 8.85 | – | – | 6.02 | – |
| GTRVRAMAI | – | – | – | – | B*0701 binding (B*0702 (B*0701)): 0 |
| GTSSFSTTINY [Peptide 9012.0190] | 7.07 | 5.38 | – | 5.83 | – |
| GTSSLPTTMNY [Peptide 9012.0194] | 8.12 | – | 6.59 | 5.60 | – |
| IPFPIVRYL | – | – | – | – | B*0701 binding (B*0702 (B*0701)): 0 |
| IPYPIVRSL | – | – | – | – | B*0701 binding (B*0702 (B*0701)): 1 |
| ITSKASEY [Peptide 9012.0108] | 6.78 | 5.48 | 4.82 | 5.50 | – |

| Compound | pIC50 (A*3002) | pIC50 (HLA-A1 (A*0101)) | pIC50 (A*2902) | pIC50 (A*2601) | further results |
| --- | --- | --- | --- | --- | --- |
| KPLDGEYFTL | – | – | – | – | B*0701 binding (B*0702 (B*0701)): 0 |
| LLMGTLGIV | – | – | – | – | CTL response in HLA-A2.1 transgenic mice [1]: most immunogenic |
| LPENNVLSPL | – | – | – | – | B*0701 binding (B*0702 (B*0701)): 0 |
| LTHFLLLKY [Peptide 9012.0134] | 8.49 | 7.49 | 8.89 | 6.43 | – |
| LTQENYLEY [Peptide 9012.0133] | 7.64 | 7.80 | 7.66 | 7.52 | – |
| MPRGVVVTL | – | – | – | – | B*0701 binding (B*0702 (B*0701)): 3 |
| NTDRHSVVVPY [Peptide 9012.0198] | 5.01 | – | 5.77 | 5.34 | – |
| PTDDPSPLQRY [Peptide 9012.0186] | 6.36 | 7.49 | 6.03 | < 4.70 | – |
| QPDDAVYKL | – | – | – | – | B*0701 binding (B*0702 (B*0701)): 0 |
| RYRPGTVAL | – | – | – | – | B*0701 binding (B*0702 (B*0701)): 0 |
| SPLLLSTTEQ [15.226] | – | – | – | – | pIC50 (B*5301): 7.26; pIC50 (B*0701): 4.67 |
| SSDPSQKTY [Peptide 9012.0139] | – | 7.43 | 5.01 | < 4.70 | – |
| SSDSTTINY [Peptide 9012.0130] | 6.05 | 8.07 | – | – | – |
| STVPSQKTY [Peptide 9012.0140] | – | < 4.70 | < 4.70 | 6.38 | – |
| TIHDIILECV | – | – | – | – | CTL response in HLA-A2.1 transgenic mice [1]: most immunogenic |
| TLGIVCPI | – | – | – | – | CTL response in HLA-A2.1 transgenic mice [1]: most immunogenic; also recorded: strongest epitope |
| TLGIVXPI | – | – | – | – | change of binding affinity for all A2 alleles versus parent (HLA-A*0201 (HLA-A2.1)): greatly increased; crossreactivity of induced CTLs with wild type sequence [1]: fully crossreactive with the wild type sequence; immunogenicity in A2/Kb transgenic mice versus wild type peptide [1]: more potent immunogen |
| TMDYPLWSQSY [Peptide 9012.0196] | 7.00 | – | 6.14 | 6.38 | – |
| TPVNSQLGNI [15.246] | – | – | – | – | pIC50 (B*5301): 4.77 |
| VTGPGPGY [Peptide 83.0098] | 6.52 | 5.73 | 5.72 | – | – |
| WPLYGNEGL [15.041] | – | – | – | – | IC50 (B*5301): 6890 nM; IC50 (B*0701): 859 nM |
| YMLDLQPETT | – | – | – | – | CTL response in HLA-A2.1 transgenic mice [1]: most immunogenic |
| YPAEITLYW | – | – | – | – | B*0701 binding (B*0702 (B*0701)): 0 |
| YPKVKQWPL | – | – | – | – | B*0701 binding (B*0702 (B*0701)): 0 |
| YTMAGVGSPY [Peptide 9012.0153] | 8.46 | 8.01 | 8.66 | 9.49 | – |
| YVMAGVGSPY [Peptide 9012.0152] | 7.92 | 6.91 | 8.47 | 8.77 | – |
